In patent publication US20260315434A1, “USE OF GUAIACOL SESQUITERPENE LACTONE DERIVATIVES” (NANJING UNIVERSITY OF CHINESE MEDICINE, priority 2023, published 2026):

How the values were obtained:
4T1 cells = test: Antitumor effect in 4T1 mouse mammary carcinoma xenograft model; assay type: in vivo, BALB/c mice; conditions: for Tumor inhibition rate (%) / Tumor weight: 40 μmol/kg/day, 4T1
Method: 4T1 cells were cultured and expanded in vitro. […] A 100 μL aliquot of this suspension was injected subcutaneously into the left forelimb axilla of female BALB/c mice. […] Daily oral administration was performed for 3 weeks. During the treatment period, mouse body weight and tumor diameter were measured daily. At the end of the experiment, mice were euthanized by cervical dislocation, and tumors were removed for weighing. Tumor volume (TV) was calculated using the formula: TV=½×a×b^2, where a represents the longest diameter of the tumor and b represents the shortest diameter.

H22 cells = test: Antitumor effect in H22 mouse hepatocellular carcinoma subcutaneous xenograft model; assay type: in vivo, BALB/c mice; conditions: for Tumor Suppression Rate (%) / Tumor weight: 40 μmol/kg/day, H22 xenograft
T cells = test: Proportion of T cells in tumor and spleen of H22 xenograft mice (flow cytometry); assay type: in vivo, BALB/c mice; conditions: for Spleen T cells (%) / Tumor T cells (%): 40 μmol/kg/day, oral, 2 weeks, flow cytometry
Method: Once all tumors were dissected, nail-sized tumor pieces were transferred to 1.5 mL Eppendorf tubes and minced with scissors. Transfer the minced tumor tissue suspension to a 15 mL centrifuge tube containing 3-5 mL of digestive enzymes (Collagenase IV 1 mg/mL, Hyaluronidase 1 mg/mL, DNase 120 U/mL). Incubate at 37° C. on a shaking incubator at 200 rpm for 1 hour. After digestion, pass the mixture through a 200-mesh sieve to obtain the tumor cell suspension. Centrifuge the resulting tumor suspension at 1600 rpm for 5 min, aspirate the supernatant, resuspend cells in 1 mL of 1×PBS per tube. Transfer the cell suspension to a 1.5 mL Eppendorf tube, centrifuge at 1600 rpm for 5 min, remove the supernatant, resuspend cells in 100 μL of 1×PBS per tube, add 1 μL of dead/live dye to each tube, mix thoroughly, and incubate at room temperature in the dark for 15 min. […] Position the spleen on a 200-mesh cell strainer. Gently press the spleen using a 10 mL syringe needle. […] Transfer the splenocyte suspension into a 15 mL centrifuge tube. Centrifuge at 1600 rpm for 5 min to collect cells. Wash once with 1×PBS. Add 3 mL red blood cell lysis buffer (diluted with ddH2O) to each tube and incubate for 5 min. After lysis, add 10 mL 1×PBS to each tube to terminate lysis. Centrifuge at 1600 rpm for 5 min. Add 1 mL 1×PBS to each 15 mL centrifuge tube, transfer to 1.5 mL EP tubes, and centrifuge at 1600 rpm for 5 min. Add 1×PBS to each tube containing stained tumor cells and lysed spleen cells for one wash, centrifuge at 1600 rpm for 5 min, and remove the supernatant. Resuspend tumor cells and spleen cells separately in 100 μL 1×PBS. Add 1 μL FcX™ antibody to each tube and incubate at room temperature in the dark for 10 min. After incubation, sequentially add 1 μL each of CD45, CD3, and CD8 antibodies to each tube. Incubate at 4° C. in the dark for 30 min. After staining, wash once with 1 mL PBS. Centrifuge at 1600 rpm for 5 min. Discard the supernatant. Resuspend cells in 300 μL 1×PBS. Filter the cell suspension into a flow cytometry tube and proceed to instrument analysis.

[1] = tested on: fibrosis-related factors (α-Sma, Col1a1, Tgfb1) in kidney tissue; test: Folic acid-induced kidney injury, renal fibrosis-related factor mRNA; assay type: in vivo, C57BL/6 mice; conditions: folic acid model
Method: (§1) Except for the normal group, all other mice were administered folic acid (250 mg/kg) dissolved in 0.9% NaHCO3 solution via intraperitoneal injection to establish an acute kidney injury model.
(§2) The blood was allowed to stand at room temperature for 2 hours, then centrifuged at 3000 rpm for 20 minutes. Serum was aspirated, aliquoted, and stored at −70° C. for future use. Following blood collection, euthanize mice by cervical dislocation. Perform laparotomy to remove kidneys, dissect out perirenal fat and capsules. […] Paraffin-embedded specimens undergo HE staining; remaining tissue is stored at −70° C. for future use.

[2] = Conversion (release) of prodrug salts to parent compound in HEPES buffer pH 7.4; assay type: in vitro ADME; conditions: for Release rate (conversion to Compound 1): HEPES pH 7.4, 37 °C
Method in brief: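 Salt dissolved in water, mixed 1:1 with HEPES solution pH 7.4 (NaCl, KCl, Na2HPO4, glucose) and held at 37° C. At 1, 2, 4, 8 and 12 h, samples were methanol-quenched, centrifuged and analysed by reversed-phase HPLC at 210 nm, with peak areas recorded for conversion to parent compound.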

[3] = tested on: renal injury markers (Ngal, Havcr1) in kidney tissue; test: Unilateral ureteral ligation (UUO) chronic kidney injury, renal injury marker mRNA; assay type: in vivo, C57BL/6 mice; design: unit not given here; conditions: UUO chronic model
Description: Chronic Kidney Injury: Mice were randomly divided into five groups. […] Except for the sham-operated mice in the normal group (where only the left ureter was exposed without further manipulation), all other mice underwent unilateral ureteral ligation to establish a chronic kidney injury model as follows: The abdominal skin was disinfected with iodine solution followed by alcohol. An incision was made, and the abdominal layers were dissected sequentially. The left ureter was fully exposed and dissected. A double ligation was performed at the bladder-proximal end of the left ureter using absorbable suture material, followed by closure.
as §2

[4] = tested on: inflammatory cytokines (TNF, IL-6, IL-1) in renal tissue; test: Folic acid-induced acute kidney injury, renal inflammatory factor mRNA; assay type: in vivo, C57BL/6 mice; conditions: folic acid acute model
Method: as §1, §2

[5] = compared with solvent control, result in words

SMILES | Col1a1 mRNA expression, kidney ([1]; 1 mg/kg oral, 1 mg/kg) | Tgfb1 mRNA expression, kidney ([1]; 1 mg/kg oral, 1 mg/kg) | α-Sma mRNA expression, kidney ([1]; 1 mg/kg oral, 1 mg/kg) | Tumor inhibition rate (%) (4T1 cells; oral, 3 weeks) | Tumor weight (4T1 cells; oral, 3 weeks) | antitumor effect, 4T1 (4T1 cells; oral, 3 weeks, result in words) | Release rate (conversion to Compound 1) ([2]; 1 h, 60 min) | Release rate (conversion to Compound 1) ([2]; 2 h, 120 min) | Release rate (conversion to Compound 1) ([2]; 4 h, 240 min) | Release rate (conversion to Compound 1) ([2]; 8 h, 480 min) | Release rate (conversion to Compound 1) ([2]; 12 h, 720 min) | Havcr1 mRNA expression, kidney ([3]; 1 mg/kg oral, 1 mg/kg) | Ngal mRNA expression, kidney ([3]; 1 mg/kg oral, 1 mg/kg) | Il1 mRNA expression, kidney ([4]; 1 mg/kg oral, 1 mg/kg) | Il6 mRNA expression, kidney ([4]; 1 mg/kg oral, 1 mg/kg) | Tnf mRNA expression, kidney ([4]; 1 mg/kg oral, 1 mg/kg) | Tumor Suppression Rate (%) (H22 cells; oral, 2 weeks) | Tumor weight (H22 cells; oral, 2 weeks) | tumor-inhibiting effect, H22 (H22 cells; oral, 2 weeks, result in words) | Spleen T cells (%) (T cells) | further results
C=C1C(=O)O[C@@H]2[C@H]3C(C)=CC[C@@]34O[C@@]4(C)CC[C@@H]12 [Arg, Arglabin, reference compound] |  |  |  |  |  |  |  |  |  |  |  |  |  |  |  |  |  |  |  |  | antitumor effect, 4T1 (4T1 cells; mouse, in vivo, po): no significant antitumor effects; tumor-inhibiting effect, H22 (H22 cells; mouse, in vivo, po): tumor-inhibiting effects; proportion of T cells in tumor tissues and spleens (T cells; mouse, in vivo): significantly increased
CN(C)C[C@@H]1C(=O)O[C@H]2[C@H]1CC[C@@]1(C)C[C@]13CC[C@@](C)(O)[C@H]23 [Compound 20] | 1.18 ± 0.15 | 0.98 ± 0.27 | 1.11 ± 0.17 | −15.24% | 2.09 ± 0.60 g | no significant antitumor effects | 6.2% | 13.8% | 21.7% | 44.3% | 59.1% | 6.29 ± 2.43 | 16.14 ± 2.74 | 1.06 ± 0.33 | 1.55 ± 0.28 | 2.31 ± 0.72 | 70.86% | 4.88 ± 0.87 g | tumor-inhibiting effects | 37.19 ± 6.99 % | Tumor T cells (%) (T cells): 29.44 ± 6.07 %; proportion of T cells in tumor tissues and spleens (T cells; [5]): significantly increased
CN(C)C[C@@H]1C(=O)O[C@H]2[C@H]1CC[C@@]1(C)C[C@]13CC[C@@](C)(O)[C@H]23 [Compound 21] | 1.20 ± 0.19 | 1.09 ± 0.15 | 0.90 ± 0.21 |  |  |  | 3.3% | 10.2% | 18.1% | 38.9% | 51.9% | 7.25 ± 0.80 | 19.42 ± 1.55 | 1.45 ± 0.23 | 5.61 ± 2.10 | 2.42 ± 0.35 |  |  |  |  | Col1a1 mRNA expression, kidney ([1]; 0.1 mg/kg oral): 1.58 ± 0.35; Tgfb1 mRNA expression, kidney ([1]; 0.1 mg/kg oral): 1.64 ± 0.16; α-Sma mRNA expression, kidney ([1]; 0.1 mg/kg oral): 1.80 ± 0.42; Havcr1 mRNA expression, kidney ([3]; 0.1 mg/kg oral): 11.90 ± 4.52; Ngal mRNA expression, kidney ([3]; 0.1 mg/kg oral): 35.77 ± 7.67; Il1 mRNA expression, kidney ([4]; 0.1 mg/kg oral): 2.07 ± 0.38; Il6 mRNA expression, kidney ([4]; 0.1 mg/kg oral): 6.47 ± 0.53; Tnf mRNA expression, kidney ([4]; 0.1 mg/kg oral): 2.60 ± 0.62
CC1=C2CC[C@@](C)(OC(=O)N3CCCCC3)[C@@H]2[C@H]2OC(=O)[C@@H](CN(C)C)[C@@H]2CC1 [Compound 102] |  |  |  | −20.37% | 2.18 ± 1.34 g | no significant antitumor effects |  |  |  |  |  |  |  |  |  |  | 27.99% | 6.13 ± 1.48 g | tumor-inhibiting effects | 31.69 ± 6.44 % | degraded at 1 h ([2]; hepes buffer, pH 7.4, HEPES pH 7.4, 37 °C, 1 h, read-out: Release rate (conversion to Compound 83)): 6.8%; degraded at 2 h ([2]; hepes buffer, pH 7.4, HEPES pH 7.4, 37 °C, 2 h, read-out: Release rate (conversion to Compound 83)): 14.6%; degraded at 4 h ([2]; hepes buffer, pH 7.4, HEPES pH 7.4, 37 °C, 4 h, read-out: Release rate (conversion to Compound 83)): 24.8%; degraded at 8 h ([2]; hepes buffer, pH 7.4, HEPES pH 7.4, 37 °C, 8 h, read-out: Release rate (conversion to Compound 83)): 43%; degraded at 12 h ([2]; hepes buffer, pH 7.4, HEPES pH 7.4, 37 °C, 12 h, read-out: Release rate (conversion to Compound 83)): 51.8%; Tumor T cells (%) (T cells): 20.86 ± 4.15 %; proportion of T cells in tumor tissues and spleens (T cells; [5]): significantly increased
